Measured values: patent publication US20260193236A1 (Protego Biopharma, Inc., priority 2022, published 2026)
Structures can show the parent of a compound that is named as a salt.

tested on: IRE1-XBP1s (XBP1-RLuc splicing reporter in HEK293 T-REx cells); assay: IRE1-XBP1s activation assay (XBP1-RLuc splicing reporter, HEK293 T-REx cells, luminescence relative to thapsigargin); format: cell-based; details: 18 h, compound 10 μM, HEK293 T-REx XBP1-RLuc reporter cells, relative to thapsigargin (Tg) 500 nM, read-out: Activity (IRE1-XBP1s activation, luminescence as % signal relative to thapsigargin, % Tg)
Method: IRE1-XBP1s activation Assay: HEK293 T-REx cells stably expressing the XBP1-RLuc splicing reporter were treated with an IRE1-XBP1s activator provided herein (10 μM) in the presence or absence of the IRE1 active site inhibitor 4μ8C (32 μM) for 18 h. Luminescence was shown as the percentage signal relative to thapsigargin (Tg) (500 nM, 18 h).

Row | SMILES | activation at 10 µM [%]
1 | Cc1ccc(OCCN(C)C(=O)Cn2cc(NC(=O)CCOC3CCC(C)(C)CC3)cn2)cc1 [Compound 3, 3-((4,4-dimethylcyclohexyl)oxy)-N-(1-(2-(methyl(2-(p-tolyloxy)ethyl)amino)-2-oxoethyl)-1H-pyrazol-4-yl)propanamide] | > 50
2 | Cc1ccc(OCCN(C)C(=O)Cn2cc(NC(=O)CCOC3CCCCC3(C)C)cn2)cc1 (stereo not drawn) [Compound 4] | < 30
3 | CCc1ccc(OCCN(C)C(=O)Cn2cc(NC(=O)CCOC3CCCCC3)cn2)cc1 [Compound 5] | 30 to 50
4 | Cc1ccc(OCCN(C)C(=O)Cn2cc(NC(=O)CCOc3cccnc3)cn2)cc1 [Compound 6, N-(1-(2-(methyl(2-(p-tolyloxy)ethyl)amino)-2-oxoethyl)-1H-pyrazol-4-yl)-3-(pyridin-3-yloxy)propanamide] | > 50
5 | Cc1ccc(OCCN(C)C(=O)Cn2cc(NC(=O)CCOc3ccnc(Cl)c3)cn2)cc1 [Compound 8] | > 50
6 | Cc1ccc(OCCN(C)C(=O)Cn2cc(NC(=O)CCOc3ccncc3)cn2)cc1 [Compound 9] | > 50
7 | Cc1ccc(OCCN(C)C(=O)Cn2cc(NC(=O)CCOc3ccc(F)nc3C)cn2)cc1 [Compound 10] | 30 to 50
8 | Cc1ccc(OCCN(C)C(=O)Cn2cc(NC(=O)CCOc3ccc(C)nc3C)cn2)cc1 [Compound 11] | 30 to 50
9 | Cc1ccc(OCCN(C)C(=O)Cn2cc(NC(=O)CCOc3cnccc3C(F)(F)F)cn2)cc1 [Compound 12] | < 30
10 | Cc1ccc(OCCN(C)C(=O)Cn2cc(NC(=O)CCOc3cccnc3C)cn2)cc1 [Compound 13] | 30 to 50
11 | Cc1ccc(OCCN(C)C(=O)Cn2cc(NC(=O)CCOc3c(C)ccnc3C)cn2)cc1 [Compound 14] | 30 to 50
12 | Cc1ccc(OCCN(C)C(=O)Cn2cc(NC(=O)CCOc3c(C(C)C)ccnc3C)cn2)cc1 [Compound 15] | > 50
13 | Cc1ccc(OCCN(C)C(=O)Cn2cc(NC(=O)CCOc3cccnc3C(F)(F)F)cn2)cc1 [Compound 16] | 30 to 50
14 | Cc1ccc(OCCN(C)C(=O)Cn2cc(NC(=O)CCOc3c(C)ccnc3N)cn2)cc1 [Compound 17] | < 30
15 | Cc1ccc(OCCN(C)C(=O)Cn2cc(NC(=O)CCOc3c(F)cncc3F)cn2)cc1 [Compound 18] | > 50
16 | CN(CCOc1ccc(C(F)(F)F)cc1)C(=O)Cn1cc(NC(=O)CCOc2ccncc2F)cn1 [Compound 19] | 30 to 50
17 | Cc1ccc(OCCN(C)C(=O)Cn2cc(NC(=O)CCN(C)c3ccccc3)cn2)cc1 [Compound 21] | < 30
18 | Cc1ccc(OCCN(C)C(=O)Cn2cc(NC(=O)CCN(C(=O)OC(C)(C)C)c3ccccc3)cn2)cc1 [Compound 23] | < 30
19 | COc1ccc(OCCN(C)C(=O)Cn2cc(NC(=O)CCOc3ccccc3)cn2)cc1 [Compound 24] | < 30

Row | SMILES | activation at 10 µM [%]
20 | CN(CCOc1ccc(C#N)cc1)C(=O)Cn1cc(NC(=O)CCOc2ccccc2)cn1 [Compound 25] | < 30
21 | CCc1ccc(OCCN(C)C(=O)Cn2cc(NC(=O)CCOc3ccccc3)cn2)cc1 [Compound 26] | > 50
22 | Cc1ccc(OCCN(C)C(=O)Cn2cc(NC(=O)CCNc3ccccc3)cn2)cc1 [Compound 27] | > 50
23 | COc1ccccc1OCCC(=O)Nc1cnn(CC(=O)N(C)CCOc2ccc(C)cc2)c1 [Compound 28] | > 50
24 | CN(CCOc1ccc(F)cc1)C(=O)Cn1cc(NC(=O)CCOc2ccccc2)cn1 [Compound 29] | < 30
25 | Cc1ccc(OCCN(C)C(=O)Cn2cc(NC(=O)CCOc3ccccc3Cl)cn2)cc1 [Compound 32] | > 50
26 | Cc1ccc(OCCN(C)C(=O)Cn2cc(NC(=O)CCOc3ccc4c(c3)OCO4)cn2)cc1 [Compound 33] | > 50
27 | Cc1ccc(OCCN(C)C(=O)Cn2cc(NC(=O)CCOc3ccccc3C)cn2)cc1 [Compound 34] | > 50
28 | Cc1ccc(OCCN(C)C(=O)Cn2cc(NC(=O)CCOc3ccc(F)cc3C)cn2)cc1 [Compound 35] | > 50
29 | COc1cccc(OCCC(=O)Nc2cnn(CC(=O)N(C)CCOc3ccc(C)cc3)c2)c1 [Compound 36] | > 50
30 | Cc1ccc(OCCN(C)C(=O)Cn2cc(NC(=O)CCOc3cccc(N(C)C)c3)cn2)cc1 [Compound 38] | > 50
31 | Cc1ccc(OCCN(C)C(=O)Cn2cc(NC(=O)CCOc3ccc(C)cc3F)cn2)cc1 [Compound 39] | 30 to 50
32 | CN(CCOc1ccc(C(F)(F)F)cc1)C(=O)Cn1cc(NC(=O)CCOc2ccccc2F)cn1 [Compound 40] | > 50
33 | CN(CCOc1cccnc1)C(=O)Cn1cc(NC(=O)CCOc2ccccc2F)cn1 [Compound 41] | < 30
34 | COc1ccc(OCCC(=O)Nc2cnn(CC(=O)N(C)CCOc3ccc(C)cc3)c2)cc1 [Compound 42] | 30 to 50
35 | Cc1ccc(OCCN(C)C(=O)Cn2cc(NC(=O)CCOc3ccc(C(F)(F)F)cc3)cn2)cc1 [Compound 44] | < 30
36 | CN(CCOc1ccc(Cl)nc1)C(=O)Cn1cc(NC(=O)CCOc2ccccc2F)cn1 [Compound 45] | 30 to 50
37 | Cc1ccc(OCCN(C)C(=O)Cn2cc(NC(=O)C(C)COc3ccccc3)cn2)cc1 (stereo not drawn) [Compound 46, 2-methyl-N-(1-(2-(methyl(2-(p-tolyloxy)ethyl)amino)-2-oxoethyl)-1H-pyrazol-4-yl)-3-phenoxypropanamide] | > 50
38 | CN(CCOc1cc(Cl)ccn1)C(=O)Cn1cc(NC(=O)CCOc2ccccc2F)cn1 [Compound 47] | < 30

Row | SMILES | activation at 10 µM [%]
39 | Cc1ccc(OCCN(C)C(=O)Cn2cc(NC(=O)CCOc3ccc(Cl)cc3F)cn2)cc1 [Compound 48] | < 30
40 | Cc1ccc(OCCN(C)C(=O)Cn2cc(NC(=O)CCOc3ccc(F)cc3F)cn2)cc1 [Compound 49] | > 50
41 | Cc1ccc(OCCN(C)C(=O)Cn2cc(N(C)C(=O)CCOc3ccccc3)cn2)cc1 [Compound 50] | < 30
42 | Cc1ccc(OCCN(C)C(=O)Cn2cc(N(C)C(=O)CCOc3ccccc3F)cn2)cc1 [Compound 51] | < 30
43 | CCc1ccc(OCCN(C)C(=O)Cn2cc(NC(=O)CCOc3ccccc3F)cn2)cc1 [Compound 52] | 30 to 50
44 | Cc1ccc(OCC(C)N(C)C(=O)Cn2cc(NC(=O)CCOc3ccccc3F)cn2)cc1 (stereo not drawn) [Compound 53] | > 50
45 | Cc1ccc(OCCN(C)C(=O)Cn2cc(NC(=O)CCOc3ccccc3OC(F)(F)F)cn2)cc1 [Compound 54] | 30 to 50
46 | CN(CCOc1ccncc1)C(=O)Cn1cc(NC(=O)CCOc2ccccc2F)cn1 [Compound 55] | < 30
47 | Cc1ccc(OCCN(C)C(=O)Cn2cc(NC(=O)CCOc3c(F)cccc3F)cn2)cc1 [Compound 56] | > 50
48 | Cc1ccc(OCCN(C)C(=O)Cn2cc(NC(=O)CCOc3c(F)cccc3Cl)cn2)cc1 [Compound 57] | 30 to 50
49 | Cc1ccc(OCCN(C)C(=O)Cn2cc(NC(=O)CCOc3c(C)cc(F)cc3C)cn2)cc1 [Compound 58] | 30 to 50
50 | CCc1cc(F)ccc1OCCC(=O)Nc1cnn(CC(=O)N(C)CCOc2ccc(C)cc2)c1 [Compound 59] | < 30
51 | Cc1ccc(OCCN(C)C(=O)Cn2cc(NC(=O)CCOc3ccc(F)cc3C(F)(F)F)cn2)cc1 [Compound 60] | < 30
52 | Cc1ccc(OCCN(C)C(=O)Cn2cc(NC(=O)CCOc3cccc(CO)c3)cn2)cc1 [Compound 61] | > 50
53 | Cc1ccc(OCCN(C)C(=O)Cn2cc(NC(=O)CCOc3ccc(F)cc3C)c(C)n2)cc1 [Compound 65] | < 30
54 | Cc1ccc(OCCN(C)C(=O)Cn2cc(NC(=O)CCOc3ccc(F)cc3C(C)C)cn2)cc1 [Compound 66] | > 50
55 | Cc1ccc(OCCC(=O)Nc2cnn(CC(=O)N(C)CCOc3ccc(C(F)(F)F)cc3)c2)c(F)c1 [Compound 67] | < 30
56 | Cc1ccc(OCCN(C)C(=O)Cn2cc(NC(=O)CCOc3ncc(F)cc3C)cn2)cc1 [Compound 68] | < 30
57 | Cc1ccc(OCCC(=O)Nc2cnn(CC(=O)N(C)CCOc3cccc(OC(F)(F)F)c3)c2)c(F)c1 [Compound 69] | < 30

same assay, conditions: 18 h, read-out: Activity (IRE1-XBP1s activation, luminescence as % signal relative to thapsigargin, % Tg)

Row | SMILES | activation at 10 µM [%]
58 | C#CC1CCCCC1OCCC(=O)Nc1cnn(CC(=O)N(C)CCOc2ccc(C)cc2)c1 (stereo not drawn) [Compound 2, 3-((2-ethynylcyclohexyl)oxy)-N-(1-(2-(methyl(2-(p-tolyloxy)ethyl)amino)-2-oxoethyl)-1H-pyrazol-4-yl)propanamide hydrochloride] | > 50
59 | Cc1ccc(OCCN(C)C(=O)Cn2cc(NC(=O)CCOc3ccc(C#N)cc3)cn2)cc1 [Compound 20, 3-(4-cyanophenoxy)-N-(1-(2-(methyl(2-(p-tolyloxy)ethyl)amino)-2-oxoethyl)-1H-pyrazol-4-yl)propanamide] | < 30
60 | CN(CCc1ccc(Cl)cc1)C(=O)Cn1cc(NC(=O)CCOc2ccccc2)cn1 [Compound 22, N-(1-(2-((4-chlorophenethyl)(methyl)amino)-2-oxoethyl)-1H-pyrazol-4-yl)-3-phenoxypropanamide hydrochloride] | < 30
61 | Cc1ccc(OCCN(C)C(=O)Cn2cc(NC(=O)C(C)(C)COc3ccccc3)cn2)cc1 [Compound 37, 2,2-dimethyl-N-(1-(2-(methyl(2-(p-tolyloxy)ethyl)amino)-2-oxoethyl)-1H-pyrazol-4-yl)-3-phenoxypropanamide] | < 30
62 | CN(CCOc1ccccn1)C(=O)Cn1cc(NC(=O)CCOc2ccccc2F)cn1 [Compound 43, 3-(2-fluorophenoxy)-N-(1-(2-(methyl(2-(pyridin-2-yloxy)ethyl)amino)-2-oxoethyl)-1H-pyrazol-4-yl)propanamide] | < 30
63 | Cc1ccc(OCC(C)(C)N(C)C(=O)Cn2cc(NC(=O)CCOc3ccccc3F)cn2)cc1 [Compound 63] | > 50
